≈ marks a conversion by molar mass, not a printed value. Calls of active or inactive are those of the source. The calls are words filed in the database; no cut-off is given here.
Tests used:
Homo sapiens [1] = assay: Toxicity in human at 500 mg administered qd for 14 days; conditions: in vivo, 336 h
Homo sapiens [2] = assay: Toxicity in human at 250 mg administered bid for 14 days; conditions: in vivo, 336 h
Hepatocyte = assay: Cytotoxicity against human primary hepatocytes assessed as reduction in cell viability; format: cell-based
[3] = Permeability across apical to basolateral in MDCK1 cells; format: ADME, cell-based, Canis lupus familiaris; conditions: dog, MDCK; read-out: permeability
[4] = Aqueous solubility of the compound; format: physicochemical; conditions: buffer
[5] = Plasma clearance in rat at 0.2 mg/kg, iv or 1 mg/kg, po administered as single dose via cassette dosing; format: ADME, organism-based
Nav1.5 [6] = biological target: T1, Nav1.5 (Homo sapiens, UniProt Q14524); assay: Inhibition of human Nav1.5 expressed in CHO cells at 1 uM incubated for 3 to 5 mins by Qpatch clamp assay; format: cell-based; conditions: CHO cells expressing human Nav1.5
Nav1.5 [7] = biological target: T1, Nav1.5; assay: Inhibition of human Nav1.5 expressed in CHO cells at 10 uM incubated for 3 to 5 mins by QPatch clamp assay; format: cell-based; conditions: CHO cells expressing human Nav1.5
Salmonella typhimurium [8] = assay: Genotoxicity in Salmonella typhimurium TA98 after 48 to 72 hrs in presence of liver S9 fraction by Ames test; format: toxicity; conditions: salmonella enterica subsp. enterica serovar typhimurium
Salmonella typhimurium [9] = assay: Genotoxicity in Salmonella typhimurium TA100 after 48 to 72 hrs in presence of liver S9 fraction by Ames test; format: toxicity; conditions: salmonella enterica subsp. enterica serovar typhimurium
Escherichia coli = assay: Genotoxicity in Escherichia coli WP2 harboring uvrA deletion mutant after 48 to 72 hrs in presence of liver S9 fraction by Ames test; format: toxicity
Salmonella typhimurium [10] = assay: Genotoxicity in Salmonella typhimurium TA100 after 48 to 72 hrs in absence of liver S9 fraction by Ames test; format: toxicity; conditions: salmonella enterica subsp. enterica serovar typhimurium
PBL [11] = assay: Genotoxicity in human PBL assessed as induction of micronuclei at 500 ug/ml in presence of rat liver S9 fraction by cytochalasin B-block method; format: toxicity, cell-based
PBL [12] = assay: Genotoxicity in human PBL assessed as induction of micronuclei at 500 ug/ml in absence of rat liver S9 fraction by cytochalasin B-block method; format: toxicity, cell-based
Cytochrome P450 3A4 = Cytochrome P450 3A4 (Homo sapiens, UniProt P08684); assay: Inhibition of CYP3A4 (unknown origin); format: ADME
Cytochrome P450 1A2 = Cytochrome P450 1A2 (Homo sapiens, UniProt P05177); assay: Inhibition of CYP1A2 (unknown origin); format: ADME
Cytochrome P450 2C19 = Cytochrome P450 2C19 (Homo sapiens, UniProt P33261); assay: Inhibition of CYP2C19 (unknown origin); format: ADME
Cytochrome P450 2D6 = Cytochrome P450 2D6 (Homo sapiens, UniProt P10635); assay: Inhibition of CYP2D6 (unknown origin); format: ADME
Cytochrome P450 2C9 = Cytochrome P450 2C9 (Homo sapiens, UniProt P11712); assay: Inhibition of CYP2C9 (unknown origin); format: ADME
TXK = biological target: T2, TXK (Homo sapiens, UniProt P42681); assay: Inhibition of human full length GST-tagged TXK expressed in baculovirus at 1 uM by Z'-LYTE assay
T2 sequence (P42681 whole entry): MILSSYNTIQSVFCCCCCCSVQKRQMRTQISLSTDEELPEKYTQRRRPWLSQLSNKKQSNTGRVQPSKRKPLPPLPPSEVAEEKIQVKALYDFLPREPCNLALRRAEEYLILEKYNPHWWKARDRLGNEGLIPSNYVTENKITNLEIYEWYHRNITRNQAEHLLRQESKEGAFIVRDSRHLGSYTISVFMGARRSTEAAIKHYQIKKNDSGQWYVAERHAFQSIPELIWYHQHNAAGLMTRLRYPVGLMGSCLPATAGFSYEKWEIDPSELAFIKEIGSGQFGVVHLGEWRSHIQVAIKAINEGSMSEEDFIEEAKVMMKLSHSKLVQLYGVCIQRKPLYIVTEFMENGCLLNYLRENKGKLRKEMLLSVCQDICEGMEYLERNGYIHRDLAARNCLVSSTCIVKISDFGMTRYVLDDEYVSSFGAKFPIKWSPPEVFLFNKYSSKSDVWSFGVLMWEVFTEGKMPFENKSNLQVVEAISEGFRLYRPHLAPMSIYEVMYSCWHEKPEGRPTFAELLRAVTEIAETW

Rattus norvegicus [13] = assay: Antiinflammatory activity in po dosed Lewis rat collagen-induced arthritis model assessed as reduction in ankle thickness administered qd for 16 days; format: functional, organism-based
Rattus norvegicus [14] = assay: Antiinflammatory activity in po dosed Lewis rat collagen-induced arthritis model assessed as reduction in ankle thickness administered bid for 16 days; format: functional, organism-based
Rattus norvegicus [15] = assay: Antiinflammatory activity in Lewis rat collagen-induced arthritis model assessed as reduction in ankle diameter AUC at 1 mg/kg, po administered qd for 16 days relative to control; format: functional; conditions: 384 h
Rattus norvegicus [16] = assay: Antiinflammatory activity in Lewis rat collagen-induced arthritis model assessed as reduction in ankle diameter AUC at 0.25 mg/kg, po administered qd for 16 days relative to control; format: functional; conditions: 384 h
Rattus norvegicus [17] = assay: Antiinflammatory activity in Lewis rat collagen-induced arthritis model assessed as reduction in ankle diameter AUC at 0.125 mg/kg, po administered bid for 16 days relative to control; format: functional; conditions: 384 h
Rattus norvegicus [18] = assay: Time at which plasma concentration stays above in vitro IC50 for BTK autophosphorylation at Y223 in rat whole blood in Lewis rat collagen-induced arthritis model at 1 to 16 mg/kg, po qd measured during 24 hrs dosing
Rattus norvegicus [19] = assay: Time at which plasma concentration stays above in vitro IC70 for BTK autophosphorylation at Y223 in rat whole blood in Lewis rat collagen-induced arthritis model at 1 to 16 mg/kg, po qd measured during 24 hrs dosing
Rattus norvegicus [20] = assay: Time at which plasma concentration stays above in vitro IC90 for BTK autophosphorylation at Y223 in rat whole blood in Lewis rat collagen-induced arthritis model at 1 to 16 mg/kg, po qd measured during 24 hrs dosing
Rattus norvegicus [21] = assay: Time at which plasma concentration stays above in vitro IC50 for BTK autophosphorylation at Y223 in rat whole blood in Lewis rat collagen-induced arthritis modelt at 0.125 to 2 mg/kg, po bid measured during 12 hrs dosing
Rattus norvegicus [22] = assay: Time at which plasma concentration stays above IC90 for BTK autophosphorylation at Y223 in rat whole blood in Lewis rat collagen-induced arthritis model at 0.125 to 2 mg/kg, po bid measured during 12 hrs dosing
Rattus norvegicus [23] = assay: Antiinflammatory activity in Lewis rat collagen-induced arthritis model assessed as reduction in ankle inflammation at 0.06 to 16 mg/kg, po administered qd for 16 days; format: functional, organism-based
Rattus norvegicus [24] = assay: Antiinflammatory activity in Lewis rat collagen-induced arthritis model assessed as reduction in ankle pannus at 0.125 to 2 mg/kg, po administered bid for 16 days; format: functional, organism-based
Rattus norvegicus [25] = assay: Antiinflammatory activity in Lewis rat collagen-induced arthritis model assessed as reduction in ankle inflammation at 0.125 to 2 mg/kg, po administered bid for 16 days; format: functional, organism-based
Rattus norvegicus [26] = assay: Antiinflammatory activity in Lewis rat collagen-induced arthritis model assessed as reduction in bone resorption at 0.125 to 2 mg/kg, po administered bid for 16 days; format: functional, organism-based
[27] = Clearance in human liver microsomes at 1 uM incubated up to 60 mins by LC-MS/MS method; format: ADME, microsome

T1 sequence (Q14524 whole entry): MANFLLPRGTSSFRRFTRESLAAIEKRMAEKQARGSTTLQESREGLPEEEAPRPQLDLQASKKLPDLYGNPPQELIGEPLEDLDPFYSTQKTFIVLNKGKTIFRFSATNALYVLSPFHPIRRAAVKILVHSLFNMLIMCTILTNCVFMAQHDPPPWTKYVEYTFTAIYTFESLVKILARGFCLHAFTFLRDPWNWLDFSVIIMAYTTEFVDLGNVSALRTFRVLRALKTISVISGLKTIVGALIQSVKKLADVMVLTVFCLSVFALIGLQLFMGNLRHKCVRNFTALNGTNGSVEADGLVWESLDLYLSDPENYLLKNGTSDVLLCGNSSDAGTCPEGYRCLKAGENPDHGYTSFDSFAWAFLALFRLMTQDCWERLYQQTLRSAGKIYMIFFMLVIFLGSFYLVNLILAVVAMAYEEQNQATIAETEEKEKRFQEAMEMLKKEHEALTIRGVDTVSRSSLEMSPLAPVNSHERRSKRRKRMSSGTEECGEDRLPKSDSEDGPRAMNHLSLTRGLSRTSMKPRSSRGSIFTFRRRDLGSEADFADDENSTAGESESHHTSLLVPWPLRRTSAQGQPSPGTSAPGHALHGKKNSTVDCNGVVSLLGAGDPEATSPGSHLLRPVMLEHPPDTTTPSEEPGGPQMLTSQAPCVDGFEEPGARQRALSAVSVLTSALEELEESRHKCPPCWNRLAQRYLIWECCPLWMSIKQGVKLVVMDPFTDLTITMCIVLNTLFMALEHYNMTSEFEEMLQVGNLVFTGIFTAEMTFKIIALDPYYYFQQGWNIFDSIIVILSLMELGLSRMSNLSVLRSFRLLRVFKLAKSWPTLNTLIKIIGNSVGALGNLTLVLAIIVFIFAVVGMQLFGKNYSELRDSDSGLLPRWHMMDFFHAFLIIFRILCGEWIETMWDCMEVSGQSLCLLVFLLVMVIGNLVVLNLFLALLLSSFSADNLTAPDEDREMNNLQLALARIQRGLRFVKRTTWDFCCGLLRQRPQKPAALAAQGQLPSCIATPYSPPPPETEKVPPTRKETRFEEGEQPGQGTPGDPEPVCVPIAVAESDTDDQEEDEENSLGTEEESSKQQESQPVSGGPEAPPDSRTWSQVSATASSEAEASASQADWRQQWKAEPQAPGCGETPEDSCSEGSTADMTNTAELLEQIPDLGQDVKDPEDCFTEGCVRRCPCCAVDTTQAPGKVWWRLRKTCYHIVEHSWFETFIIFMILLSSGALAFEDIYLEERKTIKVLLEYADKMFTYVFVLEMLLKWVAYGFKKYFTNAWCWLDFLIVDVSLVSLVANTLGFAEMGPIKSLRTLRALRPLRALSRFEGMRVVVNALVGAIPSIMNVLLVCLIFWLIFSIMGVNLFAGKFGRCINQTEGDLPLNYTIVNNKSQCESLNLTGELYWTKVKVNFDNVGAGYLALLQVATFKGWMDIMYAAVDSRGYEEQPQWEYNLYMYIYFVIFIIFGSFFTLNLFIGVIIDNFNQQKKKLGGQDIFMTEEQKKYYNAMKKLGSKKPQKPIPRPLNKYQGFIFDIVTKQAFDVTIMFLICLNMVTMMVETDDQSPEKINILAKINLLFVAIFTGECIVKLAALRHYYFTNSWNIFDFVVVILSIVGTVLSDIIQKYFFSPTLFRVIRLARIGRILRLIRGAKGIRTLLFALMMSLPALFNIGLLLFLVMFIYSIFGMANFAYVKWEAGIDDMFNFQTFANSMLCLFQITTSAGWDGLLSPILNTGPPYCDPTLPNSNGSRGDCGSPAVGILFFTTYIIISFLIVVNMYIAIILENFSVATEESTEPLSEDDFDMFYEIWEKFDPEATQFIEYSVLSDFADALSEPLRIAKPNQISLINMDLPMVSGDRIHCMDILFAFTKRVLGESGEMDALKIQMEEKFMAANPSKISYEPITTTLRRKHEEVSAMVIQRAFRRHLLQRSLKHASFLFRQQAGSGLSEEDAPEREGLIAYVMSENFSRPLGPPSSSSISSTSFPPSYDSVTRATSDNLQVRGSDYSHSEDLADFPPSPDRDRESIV
Chain of Cytochrome P450 2C9 (P11712 whole entry): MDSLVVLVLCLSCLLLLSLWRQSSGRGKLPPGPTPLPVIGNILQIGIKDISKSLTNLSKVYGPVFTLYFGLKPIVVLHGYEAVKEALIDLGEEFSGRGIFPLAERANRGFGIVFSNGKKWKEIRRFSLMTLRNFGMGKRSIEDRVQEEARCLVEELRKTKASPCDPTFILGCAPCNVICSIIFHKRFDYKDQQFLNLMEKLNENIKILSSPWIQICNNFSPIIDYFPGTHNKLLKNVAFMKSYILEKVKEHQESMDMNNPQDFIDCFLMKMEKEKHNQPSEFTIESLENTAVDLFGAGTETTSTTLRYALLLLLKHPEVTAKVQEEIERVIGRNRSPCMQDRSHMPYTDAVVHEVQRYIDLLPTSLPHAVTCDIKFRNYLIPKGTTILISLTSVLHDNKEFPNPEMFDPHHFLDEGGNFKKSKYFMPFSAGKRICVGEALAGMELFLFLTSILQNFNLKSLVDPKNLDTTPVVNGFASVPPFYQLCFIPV
Chain of Cytochrome P450 2C19 (P33261 whole entry): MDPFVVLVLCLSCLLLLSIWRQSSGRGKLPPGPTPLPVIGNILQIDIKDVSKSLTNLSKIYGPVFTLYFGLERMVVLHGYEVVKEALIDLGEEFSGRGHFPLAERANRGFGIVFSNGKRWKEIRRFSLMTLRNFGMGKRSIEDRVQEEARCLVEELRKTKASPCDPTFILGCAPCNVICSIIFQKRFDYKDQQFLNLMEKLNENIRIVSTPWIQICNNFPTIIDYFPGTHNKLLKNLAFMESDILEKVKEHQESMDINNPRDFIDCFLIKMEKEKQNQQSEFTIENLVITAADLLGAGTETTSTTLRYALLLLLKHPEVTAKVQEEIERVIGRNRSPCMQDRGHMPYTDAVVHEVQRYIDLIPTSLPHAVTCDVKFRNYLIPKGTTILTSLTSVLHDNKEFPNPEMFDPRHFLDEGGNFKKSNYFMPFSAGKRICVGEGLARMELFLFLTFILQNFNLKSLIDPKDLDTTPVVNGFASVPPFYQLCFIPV
Chain of Cytochrome P450 2D6 (P10635 whole entry): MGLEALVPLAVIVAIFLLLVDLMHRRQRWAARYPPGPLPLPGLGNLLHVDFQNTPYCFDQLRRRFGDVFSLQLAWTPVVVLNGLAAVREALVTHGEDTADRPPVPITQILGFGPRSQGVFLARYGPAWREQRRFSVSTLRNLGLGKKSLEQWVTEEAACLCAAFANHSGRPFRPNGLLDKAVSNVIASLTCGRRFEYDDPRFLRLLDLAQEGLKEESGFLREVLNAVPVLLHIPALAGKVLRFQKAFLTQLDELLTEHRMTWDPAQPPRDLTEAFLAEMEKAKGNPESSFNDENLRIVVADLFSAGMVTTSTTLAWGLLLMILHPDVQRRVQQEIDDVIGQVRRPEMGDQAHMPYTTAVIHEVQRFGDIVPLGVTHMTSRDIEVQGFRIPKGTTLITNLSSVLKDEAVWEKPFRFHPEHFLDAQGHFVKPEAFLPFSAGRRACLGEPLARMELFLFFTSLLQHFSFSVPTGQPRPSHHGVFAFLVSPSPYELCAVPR
Chain of Cytochrome P450 1A2 (P05177 whole entry): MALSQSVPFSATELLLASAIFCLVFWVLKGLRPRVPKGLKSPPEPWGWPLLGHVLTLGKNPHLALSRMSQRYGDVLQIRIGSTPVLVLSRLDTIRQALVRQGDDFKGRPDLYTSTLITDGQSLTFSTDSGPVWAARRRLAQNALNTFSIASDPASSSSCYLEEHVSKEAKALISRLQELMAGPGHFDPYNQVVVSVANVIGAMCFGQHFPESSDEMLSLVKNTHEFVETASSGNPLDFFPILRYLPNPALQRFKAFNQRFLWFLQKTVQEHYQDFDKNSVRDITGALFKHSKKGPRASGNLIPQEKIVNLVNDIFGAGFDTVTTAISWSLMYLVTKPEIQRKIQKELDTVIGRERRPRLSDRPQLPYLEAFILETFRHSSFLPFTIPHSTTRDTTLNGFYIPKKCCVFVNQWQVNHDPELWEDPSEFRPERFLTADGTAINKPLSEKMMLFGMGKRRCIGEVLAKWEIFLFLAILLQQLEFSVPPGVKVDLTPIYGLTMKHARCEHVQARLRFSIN
Chain of Cytochrome P450 3A4 (P08684 whole entry): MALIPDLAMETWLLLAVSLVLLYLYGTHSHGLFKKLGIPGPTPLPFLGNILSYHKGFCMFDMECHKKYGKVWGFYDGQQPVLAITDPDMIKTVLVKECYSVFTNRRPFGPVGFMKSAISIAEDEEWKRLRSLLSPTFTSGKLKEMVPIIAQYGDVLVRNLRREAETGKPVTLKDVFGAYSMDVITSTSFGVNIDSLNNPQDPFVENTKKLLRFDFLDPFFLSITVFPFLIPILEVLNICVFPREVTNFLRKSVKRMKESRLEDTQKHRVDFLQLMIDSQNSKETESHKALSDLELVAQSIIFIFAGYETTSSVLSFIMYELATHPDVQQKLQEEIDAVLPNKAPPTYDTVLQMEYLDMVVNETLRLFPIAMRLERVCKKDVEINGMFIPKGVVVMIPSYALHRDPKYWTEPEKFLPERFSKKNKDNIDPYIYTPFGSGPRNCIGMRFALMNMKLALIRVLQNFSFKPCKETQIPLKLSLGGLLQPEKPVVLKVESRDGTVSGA

Question: Which results are given for C[C@H]1CN(C2COC2)CCN1c1ccc(Nc2cc(-c3ccnc(N4CCn5c(cc6c5CC(C)(C)C6)C4=O)c3CO)cn(C)c2=O)nc1 [FENEBRUTINIB]?
Answer: Activity (Homo sapiens [1]): Non-Toxic; Activity (Homo sapiens [2]): Non-Toxic; IC50 (Hepatocyte): > 300 µM; Papp A→B [3]: 15.1 ×10⁻⁶ cm/s; solubility [4]: 3 µg/mL (≈ 4.51 µM); clearance [5]: 27.4 mL/min/kg; inhibition at 1 µM (Nav1.5 [6]): 0.6%; inhibition at 10 µM (Nav1.5 [7]): 1.9%; Activity (Salmonella typhimurium [8]): Non-Toxic; Activity (Salmonella typhimurium [9]): Non-Toxic; Activity (Escherichia coli): Non-Toxic; Activity (Salmonella typhimurium [10]): Non-Toxic; Activity (PBL [11]): Non-Toxic; Activity (PBL [12]): Non-Toxic; IC50 (Cytochrome P450 3A4): > 5 µM; IC50 (Cytochrome P450 1A2): > 5 µM; IC50 (Cytochrome P450 2C19): > 5 µM; IC50 (Cytochrome P450 2D6): > 5 µM; IC50 (Cytochrome P450 2C9): > 5 µM; inhibition at 1 µM (TXK): 4%; Activity (Rattus norvegicus [13]): Dose-dependent effect; Activity (Rattus norvegicus [14]): Dose-dependent effect; inhibition in vivo at 1 mg/kg (Rattus norvegicus [15]): 71%; inhibition in vivo at 0.25 mg/kg (Rattus norvegicus [16]): 26%; inhibition in vivo at 0.125 mg/kg (Rattus norvegicus [17]): 50%; Time (Rattus norvegicus [18]): 12 h; Time (Rattus norvegicus [19]): 12 h; Time (Rattus norvegicus [20]): 12 h; Time (Rattus norvegicus [21]): 6 h; Time (Rattus norvegicus [22]): 6 h; Activity (Rattus norvegicus [23]): Active; Activity (Rattus norvegicus [24]): Active; Activity (Rattus norvegicus [25]): Active; Activity (Rattus norvegicus [26]): Active; CLhep predicted at 1 µM [27]: 9.4 mL/min/kg
